Legend:
[1] = target: T1, PDE4B3 (Mus musculus, UniProt Q8VBU5); assay: cAMP response in yeast strain expressing PDE4B3; type: cell-based, Murine
T1 construct: targets used in the assays are full-length proteins (as opposed to simply the catalytic domain); expressed in transfected cells; host or cells: Schizosaccharomyces pombe, PDE gene integrated in place of cgs2
T1 sequence (Q8VBU5 1-721): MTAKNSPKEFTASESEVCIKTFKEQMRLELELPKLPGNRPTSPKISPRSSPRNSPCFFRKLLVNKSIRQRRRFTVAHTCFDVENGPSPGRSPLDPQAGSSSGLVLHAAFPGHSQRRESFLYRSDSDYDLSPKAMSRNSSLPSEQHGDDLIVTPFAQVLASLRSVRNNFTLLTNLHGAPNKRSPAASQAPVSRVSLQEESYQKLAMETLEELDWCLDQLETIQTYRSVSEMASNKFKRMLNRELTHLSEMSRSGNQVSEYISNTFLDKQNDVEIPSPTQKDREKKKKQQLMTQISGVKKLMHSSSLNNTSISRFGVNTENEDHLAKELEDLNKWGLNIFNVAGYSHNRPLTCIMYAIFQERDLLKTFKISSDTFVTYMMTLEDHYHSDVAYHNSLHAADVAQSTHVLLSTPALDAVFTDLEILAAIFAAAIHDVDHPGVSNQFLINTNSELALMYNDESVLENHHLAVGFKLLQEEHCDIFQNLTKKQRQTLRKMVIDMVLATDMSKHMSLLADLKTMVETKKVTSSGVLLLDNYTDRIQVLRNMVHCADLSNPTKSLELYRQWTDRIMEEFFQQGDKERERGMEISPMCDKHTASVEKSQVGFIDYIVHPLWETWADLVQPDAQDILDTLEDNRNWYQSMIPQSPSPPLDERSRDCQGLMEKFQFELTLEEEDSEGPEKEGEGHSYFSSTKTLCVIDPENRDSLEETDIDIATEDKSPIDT
Source text: (§1) Values represent the average and SD of two or three independent experiments. […] The strains used are as in FIG. 5A, together with strain CHP1141 (PDE8A). Values represent the average and SD of two or three independent experiments.
(§2) Thus, PDE inhibition can be indirectly quantitated by measuring the effect of a compound on cAMP levels in target yeast strains.

[2] = target: T2, PDE4A1 (Mus musculus, UniProt O89084); assay: cAMP response in yeast strain expressing PDE4A1; type: cell-based, Murine
T2 construct: targets used in the assays are full-length proteins (as opposed to simply the catalytic domain); expressed in transfected cells; host or cells: Schizosaccharomyces pombe, PDE gene integrated in place of cgs2
T2 sequence (O89084 1-610 isoform O89084-2): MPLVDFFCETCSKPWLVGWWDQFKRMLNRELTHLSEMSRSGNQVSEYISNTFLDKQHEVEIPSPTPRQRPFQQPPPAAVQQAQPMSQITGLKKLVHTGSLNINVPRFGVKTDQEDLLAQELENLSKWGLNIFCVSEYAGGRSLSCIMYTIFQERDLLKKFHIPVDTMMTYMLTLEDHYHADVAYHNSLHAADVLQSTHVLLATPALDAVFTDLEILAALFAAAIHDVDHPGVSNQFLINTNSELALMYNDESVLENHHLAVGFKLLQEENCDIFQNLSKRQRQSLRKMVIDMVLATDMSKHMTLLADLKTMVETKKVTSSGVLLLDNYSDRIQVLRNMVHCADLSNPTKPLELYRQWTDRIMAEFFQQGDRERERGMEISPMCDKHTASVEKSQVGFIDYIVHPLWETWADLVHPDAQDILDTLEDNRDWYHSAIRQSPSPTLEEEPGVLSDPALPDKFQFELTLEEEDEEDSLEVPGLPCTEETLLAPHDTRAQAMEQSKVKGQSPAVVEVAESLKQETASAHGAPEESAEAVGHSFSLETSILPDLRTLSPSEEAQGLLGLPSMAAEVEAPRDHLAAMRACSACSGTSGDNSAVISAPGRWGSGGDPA
Source text: as §1, §2

[3] = target: T3, PDE4D3 (Homo sapiens, UniProt Q08499); assay: cAMP response in yeast strain expressing PDE4D3; type: cell-based
T3 construct: targets used in the assays are full-length proteins (as opposed to simply the catalytic domain); expressed in transfected cells; host or cells: Schizosaccharomyces pombe, PDE gene integrated in place of cgs2
T3 sequence (Q08499 1-673 isoform Q08499-2): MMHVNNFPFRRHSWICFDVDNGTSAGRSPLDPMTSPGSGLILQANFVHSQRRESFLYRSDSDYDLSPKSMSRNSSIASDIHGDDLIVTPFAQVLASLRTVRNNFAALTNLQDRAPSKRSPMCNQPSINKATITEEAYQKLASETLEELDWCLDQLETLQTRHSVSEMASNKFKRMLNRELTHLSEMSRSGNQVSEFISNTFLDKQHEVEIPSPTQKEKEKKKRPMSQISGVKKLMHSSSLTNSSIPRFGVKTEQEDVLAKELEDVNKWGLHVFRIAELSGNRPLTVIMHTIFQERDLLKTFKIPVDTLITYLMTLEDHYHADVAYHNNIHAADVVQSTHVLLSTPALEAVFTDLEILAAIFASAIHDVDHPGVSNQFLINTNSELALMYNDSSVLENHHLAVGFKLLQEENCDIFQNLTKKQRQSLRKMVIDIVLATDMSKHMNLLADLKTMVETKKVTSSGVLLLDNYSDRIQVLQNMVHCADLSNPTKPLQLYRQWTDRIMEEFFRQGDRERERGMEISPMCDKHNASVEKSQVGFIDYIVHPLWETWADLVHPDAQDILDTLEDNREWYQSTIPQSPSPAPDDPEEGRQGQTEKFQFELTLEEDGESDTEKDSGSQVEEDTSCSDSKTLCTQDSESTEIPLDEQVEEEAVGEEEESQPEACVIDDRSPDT

[4] = tested on: PDE4A, PDE4B, PDE4D, PDE7A, PDE7B, PDE8A, PDE3A; assay: Summary of PDE inhibitor profile; design: key: (1): Strong PDE7A inhibitor, weak to moderate PDE4A, 4B inhibitor; (2): Strong PDE7A and PDE4s (including PDE4D) inhibitor; (3): Strong PDE7A inhibitor; details: overall classification, Table 18 footnotes
[5] = target: PDE7B (Homo sapiens, UniProt Q9NP56); assay: 5FOA growth assay in fission yeast strain expressing PDE7B; type: cell-based; design: targets used in the assays are full-length proteins (as opposed to simply the catalytic domain); expressed in transfected cells; host or cells: Schizosaccharomyces pombe; details: OD600 0.6; read-out: ED50 for 5FOA growth assays, PDE7B
PDE7B, sequence (Q9NP56 whole entry, species assumed, the tested form may be a part): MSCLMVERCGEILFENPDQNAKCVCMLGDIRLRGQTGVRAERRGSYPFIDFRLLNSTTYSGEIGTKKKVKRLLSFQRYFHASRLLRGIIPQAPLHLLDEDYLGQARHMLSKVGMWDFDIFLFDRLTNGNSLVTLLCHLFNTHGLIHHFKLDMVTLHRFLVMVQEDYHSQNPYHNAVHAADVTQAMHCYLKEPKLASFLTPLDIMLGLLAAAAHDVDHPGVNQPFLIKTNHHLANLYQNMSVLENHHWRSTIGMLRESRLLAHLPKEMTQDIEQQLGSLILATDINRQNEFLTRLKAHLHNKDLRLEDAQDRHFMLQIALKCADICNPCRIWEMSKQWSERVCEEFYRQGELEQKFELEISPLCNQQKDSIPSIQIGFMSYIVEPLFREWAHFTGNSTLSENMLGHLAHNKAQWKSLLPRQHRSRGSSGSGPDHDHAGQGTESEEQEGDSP
Procedure: PDE inhibition allows growth in 5FOA medium as measured by optical density after 48 hours incubation at 30° C. Compound BC12 and six structural analogs were tested for growth stimulation.
Cells were pregrown in EMM medium [MP Biomedicals (Solon, Ohio), 3% glucose, filter-sterilized to avoid carmelization, which would introduce variability into the optical density of the medium] containing from 0 mM to 2.5 mM cAMP (or either 0.5 mM or 1.0 mM cGMP). This was to repress expression of the fbp1-ura4 reporter prior to exposure of cells to 5FOA medium. Cells were grown at 30° C. to exponential phase (approximately 10^7 cells/ml). Cells were collected by centrifugation and resuspended in 5FOA medium, and 25 μl were transferred to 384-well microtiter dishes (untreated, with flat clear bottoms) that had been pre-filled with 25 μl 5FOA medium and pre-pinned with 100 nl of compounds (stock solutions were generally 10 mM). Starting cell concentrations ranged from 0.5×10^5 to 4×10^5 cells/ml depending on the screening strain. […] Other positive control dishes contained 5 mM cAMP in the 5FOA medium for PDEs that lack appropriate control compounds. Cultures were grown for 48 hours at 30° C., sealed in an airtight container with moist paper towels to prevent evaporation. Optical densities (OD600) of cultures were measured using a microplate reader. Bioinformatic analysis of the results to determine composite Z scores was performed as previously described (1, 3).

COC(=O)C1=C(C)N(C2CCCCC2)C(=O)/C1=C\c1cccs1 [Compound 22]
cAMP Response (% rolipram), 4B3 [1]: 51.00 % rolipram
cAMP Response (% rolipram), 4A1 [2]: 54.00 % rolipram
cAMP Response (% rolipram), 4D3 [3]: 12.00 % rolipram

COC(=O)C1=C(C)N(c2ccccc2Cl)C(=O)/C1=C\c1cccs1 [Compound 27]
cAMP Response (% rolipram), 4B3 [1]: 71.00 % rolipram
cAMP Response (% rolipram), 4A1 [2]: 78.00 % rolipram
cAMP Response (% rolipram), 4D3 [3]: 8.00 % rolipram

COc1ccc2c(c1)[C@@]1(C)CCC[C@](C)(CO)C1CC2 (stereo partly drawn) [Compound 2067M03]
PDE inhibitor profile (Table 18) [4]: 2067M03 (1)

Cc1sc2ncnc(Nc3ccccc3)c2c1C [BC64]
EC50 [5]: > 200 µM

N#Cc1sc2sc(C#N)c(-c3ccco3)c2c1N [Compound 30]
cAMP Response, 4B3 ([1]; Table 16, unit not given): 67
cAMP Response, 4A1 ([2]; Table 16, unit not given): 65.7

Cc1ccc2c(c1)CCC1CC(=O)CC[C@]21C (stereo partly drawn) [Compound 2158J12]
PDE inhibitor profile (Table 18) [4]: 2158J12 (2)

CCN(CC)c1ncnc2sc3c(c12)CCCC3 [BC44]
EC50 [5]: 2.1 µM

Reference: patent US20100227853A1, “INHIBITORS OF CYCLIC AMP PHOSPHODIESTERASES” (Trustees of Boston College, priority 2008, published 2010)
